This is an account of results in patent US20180110218A1, “Substrate for Controlling Flies and Other Insects, Method for Manufacturing Thereof and Use of Said Substrate as Animal Litter” (priority 2016, published 2018).

Common to all, as to format: in vivo
Assay [1] deals with Musca domestica larvae and pupae. The assay is described as follows: Test 5: mortality of M. domestica, wood shavings impregnated with cyromazine formulations on horse manure. The procedure:
The absorbent substrate impregnated were wood shavings of the “Great Northern” pine tree, which are the most commonly used for horse litters.
For the effectiveness studies, the formulations for impregnating the wood shavings were applied manually by means of a container with a spray gun. Several sprayings were carried out, turning the wood shavings halfway to ensure that they were homogeneously impregnated.
The organic matter used was rabbit excrement in the first two tests with pyriproxyfen, due to its increased availability and high infestation with fly larvae. For tests 3 and 4 with pyriproxyfen and the test carried out with cyromazine, horse excrement was used since it is the main object on which the product is applied. In both cases, manure with high levels of fly larvae infestation was selected in order to obtain a suitable number of larvae per test. […]
In the case of the test with cyromazine, after the 5 days of exposure the dead pupae and larvae were separated. Once the adults emerged, the dead larvae, the unviable pupae and the adults that emerged (healthy and malformed) were counted in order to calculate the mortality rate for each case. […]

Assay [2] shares this test system. The assay is described as follows: Test 1: pupal mortality of M. domestica, wood shavings impregnated with pyriproxyfen/diflubenzuron formulations on rabbit manure.
From the text: (§1) The organic matter used was rabbit excrement in the first two tests with pyriproxyfen, due to its increased availability and high infestation with fly larvae. […] In both cases, manure with high levels of fly larvae infestation was selected in order to obtain a suitable number of larvae per test. […]
(§2) In the case of the tests of litters with pyriproxyfen, after 5 days of exposure (enough time for the larvae to progress to the pupal stage), the pupae were separated in plastic cups covered with a net, waiting for the adults to emerge. Once the adults emerged, the unviable pupae and the adults that emerged (healthy and malformed) were counted in order to calculate the mortality rate for each case. […]
The test system is the same in assay [3]. The assay is described as follows: Test 4: pupal mortality of M. domestica, wood shavings impregnated with low-concentration pyriproxyfen formulations on horse manure.
From the text: as §1, §2

Entries after “also recorded” stand apart in the source; their conditions may differ.

For the compound `Nc1nc(N)nc(NC2CC2)n1` [cyromazine], the “effectiveness (in words)” value in assay [1] is given as “effective in low doses”.
Turning to `O=C(NC(=O)c1c(F)cccc1F)Nc1ccc(Cl)cc1` [diflubenzuron], the “mortality results / effectiveness (in words)” value in assay [2] is reported as “effective in low doses”.
Take `CC(COc1ccc(Oc2ccccc2)cc1)Oc1ccccn1` (stereo not drawn) [pyriproxyfen]: the “effectiveness as a pupicide (in words)” value in assay [3] is on record as “good effectiveness; also recorded: effective in low doses”.
